Values joined by “and” are separate entries in the source; they are usually repeats but may differ in a detail not shown here. Equal entries are not always repeated.
Tests used:
SfurOBP1 = SfurOBP1 (Sogatella furcifera, UniProt V5T8N5); test: biochemical; assay type: binding; conditions: for Fluorescence competitive binding assay, fluorescence intensity: OBP1, three replicate columns
Method in brief: (§1)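 Fluorescence competitive binding with 1-NPN as reporter: 2.0 µM protein and 2.0 µM 1-NPN in 50 mM Tris-HCl pH 7.4, odorant added at 2–20 µM final. Excitation 337 nm, emission 390–490 nm read 2 min after addition, triplicates. Ki = IC50/(1 + [1-NPN]/K1-NPN).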

SfurOBP11 = SfurOBP11 (Sogatella furcifera, UniProt V5T6E3); test: biochemical; assay type: binding
Sequence of SfurOBP11 (V5T6E3 entry or part of it): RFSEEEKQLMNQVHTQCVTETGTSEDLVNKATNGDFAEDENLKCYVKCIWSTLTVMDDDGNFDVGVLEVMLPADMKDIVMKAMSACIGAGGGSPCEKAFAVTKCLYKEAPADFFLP
Method in brief: as §1

SfurOBP2 = SfurOBP2 (Sogatella furcifera, UniProt V5T759); test: biochemical; assay type: binding
Sequence of SfurOBP2 (V5T759 entry or part of it): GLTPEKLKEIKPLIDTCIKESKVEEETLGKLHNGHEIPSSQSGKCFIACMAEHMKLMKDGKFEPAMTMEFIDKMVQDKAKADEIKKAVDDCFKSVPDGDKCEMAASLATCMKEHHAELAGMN
Method in brief: as §1

SfurOBP3 = SfurOBP3 (Sogatella furcifera, UniProt V5T818); test: biochemical; assay type: binding; conditions: for Fluorescence competitive binding assay, fluorescence intensity: OBP3, three replicate columns
Sequence of SfurOBP3 (V5T818 entry or part of it): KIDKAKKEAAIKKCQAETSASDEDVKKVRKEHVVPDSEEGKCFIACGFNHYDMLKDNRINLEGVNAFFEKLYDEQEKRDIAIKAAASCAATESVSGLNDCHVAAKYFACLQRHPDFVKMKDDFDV
Method in brief: as §1

S. furcifera adults = test: Y-tube olfactometer behavioral trials; assay type: in vivo, Sogatella furcifera; conditions: odorant 50 µL/L vs hexane; adults
Method in brief: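 Single S. furcifera adults (2 days post-emergence, starved 0.5 h) chose between odorant (100 µL of 50 µL/L on filter paper) and hexane control in a glass Y-tube, charcoal-filtered humidified air 300 mL/min per arm, 25 ± 1 °C, 50% RH. Choice scored if insect passed half an arm and stayed >1 min within 10 min; 45 insects per compound, chi-squared test.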

Sequence of SfurOBP1 (V5T8N5 entry or part of it): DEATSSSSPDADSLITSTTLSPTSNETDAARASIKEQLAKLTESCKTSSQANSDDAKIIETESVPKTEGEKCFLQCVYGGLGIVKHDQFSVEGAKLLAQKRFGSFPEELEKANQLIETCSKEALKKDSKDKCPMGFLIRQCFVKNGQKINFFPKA

Cc1ccc(C(C)C)cc1 [4-isopropyltoluene]
IC50 (SfurOBP1): > 20 µM | Fluorescence competitive binding assay, fluorescence intensity (SfurOBP1; ligand concentration 2 (μM)): 7244 and 8974 and 9151 | Fluorescence competitive binding assay, fluorescence intensity (SfurOBP1; ligand concentration 4 (μM)): 8883 and 8922 and 8958 | Fluorescence competitive binding assay, fluorescence intensity (SfurOBP1; ligand concentration 6 (μM)): 7592 and 6723 and 7351 | Fluorescence competitive binding assay, fluorescence intensity (SfurOBP1; ligand concentration 8 (μM)): 6920 and 7774 and 7302 | Fluorescence competitive binding assay, fluorescence intensity (SfurOBP1; ligand concentration 10 (μM)): 7780 and 7649 and 7941 | Fluorescence competitive binding assay, fluorescence intensity (SfurOBP1; ligand concentration 12 (μM)): 6330 and 8293 and 7991 | Fluorescence competitive binding assay, fluorescence intensity (SfurOBP1; ligand concentration 14 (μM)): 6493 and 6423 and 6689 | Fluorescence competitive binding assay, fluorescence intensity (SfurOBP1; ligand concentration 16 (μM)): 5419 and 7344 and 6052 | Fluorescence competitive binding assay, fluorescence intensity (SfurOBP1; ligand concentration 18 (μM)): 6795 and 8973 and 7227 | Fluorescence competitive binding assay, fluorescence intensity (SfurOBP1; ligand concentration 20 (μM)): 8723 and 7567 and 6306 | IC50 (SfurOBP11): > 20 µM | Fluorescence intensity, fluorescence competitive binding assay, OBP11 (SfurOBP11; ligand concentration 2, replicate 1): 35978 | Fluorescence intensity, fluorescence competitive binding assay, OBP11 (SfurOBP11; ligand concentration 2, replicate 2): 29566 | Fluorescence intensity, fluorescence competitive binding assay, OBP11 (SfurOBP11; ligand concentration 2, replicate 3): 32252 | Fluorescence intensity, fluorescence competitive binding assay, OBP11 (SfurOBP11; ligand concentration 4, replicate 1): 30015 | Fluorescence intensity, fluorescence competitive binding assay, OBP11 (SfurOBP11; ligand concentration 4, replicate 2): 32067 | Fluorescence intensity, fluorescence competitive binding assay, OBP11 (SfurOBP11; ligand concentration 4, replicate 3): 31035 | Fluorescence intensity, fluorescence competitive binding assay, OBP11 (SfurOBP11; ligand concentration 6, replicate 1): 30703 | Fluorescence intensity, fluorescence competitive binding assay, OBP11 (SfurOBP11; ligand concentration 6, replicate 2): 29596 | Fluorescence intensity, fluorescence competitive binding assay, OBP11 (SfurOBP11; ligand concentration 6, replicate 3): 29854 | Fluorescence intensity, fluorescence competitive binding assay, OBP11 (SfurOBP11; ligand concentration 8, replicate 1): 26981 | Fluorescence intensity, fluorescence competitive binding assay, OBP11 (SfurOBP11; ligand concentration 8, replicate 2): 27991 | Fluorescence intensity, fluorescence competitive binding assay, OBP11 (SfurOBP11; ligand concentration 8, replicate 3): 25842 | Fluorescence intensity, fluorescence competitive binding assay, OBP11 (SfurOBP11; ligand concentration 10, replicate 1): 25875 | Fluorescence intensity, fluorescence competitive binding assay, OBP11 (SfurOBP11; ligand concentration 10, replicate 2): 25879 | Fluorescence intensity, fluorescence competitive binding assay, OBP11 (SfurOBP11; ligand concentration 10, replicate 3): 25958 | Fluorescence intensity, fluorescence competitive binding assay, OBP11 (SfurOBP11; ligand concentration 12, replicate 1): 23828 | Fluorescence intensity, fluorescence competitive binding assay, OBP11 (SfurOBP11; ligand concentration 12, replicate 2): 23071 | Fluorescence intensity, fluorescence competitive binding assay, OBP11 (SfurOBP11; ligand concentration 12, replicate 3): 23450 | Fluorescence intensity, fluorescence competitive binding assay, OBP11 (SfurOBP11; ligand concentration 14, replicate 1): 21639 | Fluorescence intensity, fluorescence competitive binding assay, OBP11 (SfurOBP11; ligand concentration 14, replicate 2): 22165 | Fluorescence intensity, fluorescence competitive binding assay, OBP11 (SfurOBP11; ligand concentration 14, replicate 3): 24226 | Fluorescence intensity, fluorescence competitive binding assay, OBP11 (SfurOBP11; ligand concentration 16, replicate 1): 19389 | Fluorescence intensity, fluorescence competitive binding assay, OBP11 (SfurOBP11; ligand concentration 16, replicate 2): 17044 | Fluorescence intensity, fluorescence competitive binding assay, OBP11 (SfurOBP11; ligand concentration 16, replicate 3): 20238 | Fluorescence intensity, fluorescence competitive binding assay, OBP11 (SfurOBP11; ligand concentration 18, replicate 1): 24841 | Fluorescence intensity, fluorescence competitive binding assay, OBP11 (SfurOBP11; ligand concentration 18, replicate 2): 23918 | Fluorescence intensity, fluorescence competitive binding assay, OBP11 (SfurOBP11; ligand concentration 18, replicate 3): 23440 | Fluorescence intensity, fluorescence competitive binding assay, OBP11 (SfurOBP11; ligand concentration 20, replicate 1): 24558 | Fluorescence intensity, fluorescence competitive binding assay, OBP11 (SfurOBP11; ligand concentration 20, replicate 2): 23570 | Fluorescence intensity, fluorescence competitive binding assay, OBP11 (SfurOBP11; ligand concentration 20, replicate 3): 24060 | IC50 (SfurOBP2): > 20 µM | Fluorescence competitive binding assay, OBP2 (raw fluorescence reading) (SfurOBP2; ligand concentration 2 (unit not given), replicate column 1 of 3): 17529 | Fluorescence competitive binding assay, OBP2 (raw fluorescence reading) (SfurOBP2; ligand concentration 2 (unit not given), replicate column 2 of 3): 17068 | Fluorescence competitive binding assay, OBP2 (raw fluorescence reading) (SfurOBP2; ligand concentration 2 (unit not given), replicate column 3 of 3): 16667 | Fluorescence competitive binding assay, OBP2 (raw fluorescence reading) (SfurOBP2; ligand concentration 4 (unit not given), replicate column 1 of 3): 17068 | Fluorescence competitive binding assay, OBP2 (raw fluorescence reading) (SfurOBP2; ligand concentration 4 (unit not given), replicate column 2 of 3): 16662 | Fluorescence competitive binding assay, OBP2 (raw fluorescence reading) (SfurOBP2; ligand concentration 4 (unit not given), replicate column 3 of 3): 16270 | Fluorescence competitive binding assay, OBP2 (raw fluorescence reading) (SfurOBP2; ligand concentration 6 (unit not given), replicate column 1 of 3): 17127 | Fluorescence competitive binding assay, OBP2 (raw fluorescence reading) (SfurOBP2; ligand concentration 6 (unit not given), replicate column 2 of 3): 17348 | Fluorescence competitive binding assay, OBP2 (raw fluorescence reading) (SfurOBP2; ligand concentration 6 (unit not given), replicate column 3 of 3): 16845 | Fluorescence competitive binding assay, OBP2 (raw fluorescence reading) (SfurOBP2; ligand concentration 8 (unit not given), replicate column 1 of 3): 17260 | Fluorescence competitive binding assay, OBP2 (raw fluorescence reading) (SfurOBP2; ligand concentration 8 (unit not given), replicate column 2 of 3): 16330 | Fluorescence competitive binding assay, OBP2 (raw fluorescence reading) (SfurOBP2; ligand concentration 8 (unit not given), replicate column 3 of 3): 16495 | Fluorescence competitive binding assay, OBP2 (raw fluorescence reading) (SfurOBP2; ligand concentration 10 (unit not given), replicate column 1 of 3): 16487 | Fluorescence competitive binding assay, OBP2 (raw fluorescence reading) (SfurOBP2; ligand concentration 10 (unit not given), replicate column 2 of 3): 17551 | Fluorescence competitive binding assay, OBP2 (raw fluorescence reading) (SfurOBP2; ligand concentration 10 (unit not given), replicate column 3 of 3): 16673 | Fluorescence competitive binding assay, OBP2 (raw fluorescence reading) (SfurOBP2; ligand concentration 12 (unit not given), replicate column 1 of 3): 14433 | Fluorescence competitive binding assay, OBP2 (raw fluorescence reading) (SfurOBP2; ligand concentration 12 (unit not given), replicate column 2 of 3): 15818 | Fluorescence competitive binding assay, OBP2 (raw fluorescence reading) (SfurOBP2; ligand concentration 12 (unit not given), replicate column 3 of 3): 14693 | Fluorescence competitive binding assay, OBP2 (raw fluorescence reading) (SfurOBP2; ligand concentration 14 (unit not given), replicate column 1 of 3): 14333 | Fluorescence competitive binding assay, OBP2 (raw fluorescence reading) (SfurOBP2; ligand concentration 14 (unit not given), replicate column 2 of 3): 14565 | Fluorescence competitive binding assay, OBP2 (raw fluorescence reading) (SfurOBP2; ligand concentration 14 (unit not given), replicate column 3 of 3): 13503 | Fluorescence competitive binding assay, OBP2 (raw fluorescence reading) (SfurOBP2; ligand concentration 16 (unit not given), replicate column 1 of 3): 12972 | Fluorescence competitive binding assay, OBP2 (raw fluorescence reading) (SfurOBP2; ligand concentration 16 (unit not given), replicate column 2 of 3): 13456 | Fluorescence competitive binding assay, OBP2 (raw fluorescence reading) (SfurOBP2; ligand concentration 16 (unit not given), replicate column 3 of 3): 13282 | Fluorescence competitive binding assay, OBP2 (raw fluorescence reading) (SfurOBP2; ligand concentration 18 (unit not given), replicate column 1 of 3): 13043 | Fluorescence competitive binding assay, OBP2 (raw fluorescence reading) (SfurOBP2; ligand concentration 18 (unit not given), replicate column 2 of 3): 13102 | Fluorescence competitive binding assay, OBP2 (raw fluorescence reading) (SfurOBP2; ligand concentration 18 (unit not given), replicate column 3 of 3): 13475 | Fluorescence competitive binding assay, OBP2 (raw fluorescence reading) (SfurOBP2; ligand concentration 20 (unit not given), replicate column 1 of 3): 13105 | Fluorescence competitive binding assay, OBP2 (raw fluorescence reading) (SfurOBP2; ligand concentration 20 (unit not given), replicate column 2 of 3): 12354 | Fluorescence competitive binding assay, OBP2 (raw fluorescence reading) (SfurOBP2; ligand concentration 20 (unit not given), replicate column 3 of 3): 13093 | IC50 (SfurOBP3): > 20 µM | Fluorescence competitive binding assay, fluorescence intensity (SfurOBP3; ligand concentration 2): 76459 and 72745 and 73014 | Fluorescence competitive binding assay, fluorescence intensity (SfurOBP3; ligand concentration 4): 75454 and 75539 and 76517 | Fluorescence competitive binding assay, fluorescence intensity (SfurOBP3; ligand concentration 6): 77021 and 76644 and 73341 | Fluorescence competitive binding assay, fluorescence intensity (SfurOBP3; ligand concentration 8): 70448 and 67651 and 65820 | Fluorescence competitive binding assay, fluorescence intensity (SfurOBP3; ligand concentration 10): 65984 and 64535 and 66083 | Fluorescence competitive binding assay, fluorescence intensity (SfurOBP3; ligand concentration 12): 59229 and 62714 and 59705 | Fluorescence competitive binding assay, fluorescence intensity (SfurOBP3; ligand concentration 14): 51855 and 54624 and 58162 | Fluorescence competitive binding assay, fluorescence intensity (SfurOBP3; ligand concentration 16): 47509 and 50343 and 51946 | Fluorescence competitive binding assay, fluorescence intensity (SfurOBP3; ligand concentration 18): 53658 and 55976 and 54775 | Fluorescence competitive binding assay, fluorescence intensity (SfurOBP3; ligand concentration 20): 49838 and 49582 and 48822 | number of insects choosing hexane arm (S. furcifera adults): 13 | number of insects choosing volatilies arm (S. furcifera adults): 11 | number of insects failed (no choice) (S. furcifera adults): 16
